Measured values published in patent US11160280B2, “Pesticial compounds” (BASF SE, priority 2017, dated 2021).

How the values were obtained:
Assay type in all cases: in vivo
[1] = tested on: tobacco budworm (Heliothis virescens); test: Action on tobacco budworm (Heliothis virescens), eggs on insect diet in microtiter plates; conditions: 120 h, egg and larval mortality after 5 days, read-out: mortality in comparison with untreated controls
Method: Example B5: Action on Tobacco Budworm (Heliothis virescens)
For evaluating control of tobacco budworm (Heliothis virescens) the test unit consisted of 96-well-microtiter plates containing an insect diet and 15-25 H. virescens eggs.
The compounds were formulated using a solution containing 75% v/v water and 25% v/v DMSO. Different concentrations of formulated compounds were sprayed onto the insect diet at 10 μl, using a custom built micro atomizer, at two replications.
After application, microtiter plates were incubated at about 28±1° C. and about 80±5% relative humidity for 5 days. Egg and larval mortality was then visually assessed.

[2] = tested on: Diamond Back Moth (Plutella xylostella); test: Action on diamond back moth (Plutella xylostella), cabbage leaf dip; conditions: foliar, 3rd instar larvae on dipped cabbage leaves, mortality 72 hours after treatment, read-out: mortality in comparison with untreated controls
Method: Example B6: Action on Diamond Back Moth (Plutella xylostella)
The active compound is dissolved at the desired concentration in a mixture of 1:1 (vol:vol) distilled water:acetone. Surfactant (Kinetic® HV) is added at a rate of 0.01% (vol/vol). The test solution is prepared at the day of use.
Leaves of cabbage were dipped in test solution and air-dried. Treated leaves were placed in petri dishes lined with moist filter paper and inoculated with ten 3rd instar larvae. Mortality was recorded 72 hours after treatment. Feeding damages were also recorded using a scale of 0-100%.

[3] = tested on: Southern Armyworm (Spodoptera eridania), 2nd Instar Larvae; test: Action on southern armyworm (Spodoptera eridania), 2nd instar larvae on sprayed lima bean plants; conditions: 96 h, 2nd instar larvae on lima bean plants, 4 days after treatment, read-out: mortality in comparison with untreated controls
Method: Example B7: Action on Southern Armyworm (Spodoptera eridania), 2nd Instar Larvae
The active compounds were formulated by a Tecan liquid handler in 100% cyclohexanone as a 10,000 ppm solution supplied in tubes. The 10,000 ppm solution was serially diluted in 100% cyclohexanone to make interim solutions. These served as stock solutions for which final dilutions were made by the Tecan in 50% acetone:50% water (v/v) into 10 or 20 ml glass vials. A nonionic surfactant (Kinetic®) was included in the solution at a volume of 0.01% (v/v). The vials were then inserted into an automated electrostatic sprayer equipped with an atomizing nozzle for application to plants/insects.
Lima bean plants (variety Sieva) were grown 2 plants to a pot and selected for treatment at the 1st true leaf stage. Test solutions were sprayed onto the foliage by an automated electrostatic plant sprayer equipped with an atomizing spray nozzle. The plants were dried in the sprayer fume hood and then removed from the sprayer. Each pot was placed into perforated plastic bags with a zip closure. About 10 to 11 armyworm larvae were placed into the bag and the bags zipped closed. Test plants were maintained in a growth room at about 25° C. and about 20-40% relative humidity for 4 days, avoiding direct exposure to fluorescent light (24 hour photoperiod) to prevent trapping of heat inside the bags. Mortality and reduced feeding were assessed 4 days after treatment, compared to untreated control plants.

[4] = tested on: boll weevil (Anthonomus grandis); test: Action on boll weevil (Anthonomus grandis), eggs on insect diet in microtiter plates; conditions: 120 h, egg and larval mortality after 5 days, read-out: mortality in comparison with untreated controls
Method: Example B3: Action on Boll Weevil (Anthonomus grandis)
For evaluating control of boll weevil (Anthonomus grandis) the test unit consisted of 96-well-microtiter plates containing an insect diet and 5-10 A. grandis eggs.
The compounds were formulated using a solution containing 75% v/v water and 25% v/v DMSO. Different concentrations of formulated compounds were sprayed onto the insect diet at 5 μl, using a custom built micro atomizer, at two replications.
After application, microtiter plates were incubated at about 25±1° C. and about 75±5% relative humidity for 5 days. Egg and larval mortality was then visually assessed.

[5] = tested on: Silverleaf Whitefly (Bemisia argentifoli) (Adults); test: Action on silverleaf whitefly (Bemisia argentifoli) adults on sprayed cotton plants; conditions: Bemisia argentifolii, 72 h, mortality 3 days after treatment, read-out: mortality in comparison with untreated controls
Method: Example B4: Action on Silverleaf Whitefly (Bemisia argentifoli) (Adults)
The active compounds were formulated by a Tecan liquid handler in 100% cyclohexanone as a 10,000 ppm solution supplied in tubes. The 10,000 ppm solution was serially diluted in 100% cyclohexanone to make interim solutions. These served as stock solutions for which final dilutions were made by the Tecan in 50% acetone:50% water (v/v) into 5 or 10 ml glass vials. A nonionic surfactant (Kinetic®) was included in the solution at a volume of 0.01% (v/v). The vials were then inserted into an automated electrostatic sprayer equipped with an atomizing nozzle for application to plants/insects.
Cotton plants at the cotyledon stage (one plant per pot) were sprayed by an automated electrostatic plant sprayer equipped with an atomizing spray nozzle. The plants were dried in the sprayer fume hood and then removed from the sprayer. Each pot was pla-ced into a plastic cup and about 10 to 12 whitefly adults (approximately 3-5 days old) were introduced. The insects were collected using an aspirator and a nontoxic Tygon® tubing connected to a barrier pipette tip. The tip, containing the collected insects, was then gently inserted into the soil containing the treated plant, allowing insects to crawl out of the tip to reach the foliage for feeding. Cups were covered with a reusable screened lid. Test plants were maintained in a growth room at about 25° C. and about 20-40% relative humidity for 3 days, avoiding direct exposure to fluorescent light (24 hour photoperiod) to prevent trapping of heat inside the cup. Mortality was assessed 3 days after treatment, compared to untreated control plants.

[6] = tested on: yellow fever mosquito (Aedes aegypti); test: whole plant or invertebrate; conditions: 48 h, larval mortality visually assessed after 2 days, read-out: mortality in comparison with untreated controls
Method: Example B1: Action on Yellow Fever Mosquito (Aedes aegypti)
For evaluating control of yellow fever mosquito (Aedes aegypti) the test unit consisted of 96-well-microtiter plates containing 200 μl of tap water per well and 5-15 freshly hatched A. aegypti larvae.
The active compounds were formulated using a solution containing 75% (v/v) water and 25% (v/v) DMSO. Different concentrations of formulated compounds or mixtures were sprayed onto the insect diet at 2.5 μl, using a custom built micro atomizer, at two replications.
After application, microtiter plates were incubated at 28+1° C., 80+5% RH for 2 days. Larval mortality was then visually assessed.

[7] = tested on: Orchid thrips (Dichromothrips corbetti); test: Action on orchid thrips (Dichromothrips corbetti), floral-immersion technique; conditions: adult thrips, mortality 72 hours after treatment, read-out: mortality in comparison with untreated controls
Method: Example B2: Action on Orchid thrips (Dichromothrips corbetti)
Dichromothrips corbetti adults used for bioassay were obtained from a colony maintained continuously under laboratory conditions. For testing purposes, the test compound is diluted in a 1:1 mixture of acetone:water (vol:vol), plus Kinetic® HV at a rate of 0.01% v/v.
Thrips potency of each compound was evaluated by using a floral-immersion technique. All petals of individual, intact orchid flowers were dipped into treatment solution and allowed to dry in Petri dishes. Treated petals were placed into individual re-sealable plastic along with about […]. All test arenas were held under continuous light and a temperature of about 28° C. for duration of the assay. After 3 days, the numbers of live thrips were counted on each petal. The percent mortality was recorded 72 hours after treatment.

CC(C)c1ccccc1NC(=S)N/N=C/c1ccc2c(COc3ccc(OC(F)(F)F)cc3)nn(C)c2c1 [Example C-3, 1-(2-isopropylphenyl)-3-[(E)-[1-methyl-3-[[4-(trifluoromethoxy)phenoxy]methyl]indazol-6-yl]methyleneamino]thiourea]
≥ 75%: mortality at 800 ppm [1] | mortality at 500 ppm [2] | mortality at 300 ppm [3] | mortality at 800 ppm [4] | mortality at 300 ppm [5] | mortality at 800 ppm [6] | mortality at 500 ppm [7]

CO[C@@H]1[C@@H](OC)[C@H](C)O[C@@H](OC(=O)Nc2ccc3c(C(=O)Nc4ccc(OC(F)(F)F)cc4)nn(C)c3c2)[C@@H]1OC [Example C-6, [(2S,3R,4R,5S,6S)-3,4,5-trimethoxy-6-methyl-tetrahydropyran-2-yl] N-[1-methyl-3-[[4-(trifluoromethoxy)phenyl]carbamoyl]indazol-6-yl]carbamate]
≥ 75%: mortality at 800 ppm [1] | mortality at 500 ppm [2] | mortality at 300 ppm [3] | mortality at 800 ppm [4] | mortality at 300 ppm [5] | mortality at 800 ppm [6] | mortality at 500 ppm [7]

CC(C)c1ccccc1NC(=S)N/N=C/c1ccc2c(C(C)Oc3ccc(OC(F)(F)F)cc3)nn(C)c2c1 (stereo not drawn) [Example C-12, 1-(2-isopropylphenyl)-3-[(E)-[1-methyl-3-[1-[4-(trifluoromethoxy)phenoxy]ethyl]indazol-6-yl]methyleneamino]thiourea]
≥ 75%: mortality at 800 ppm [1] | mortality at 500 ppm [2] | mortality at 300 ppm [3] | mortality at 800 ppm [4] | mortality at 300 ppm [5] | mortality at 800 ppm [6] | mortality at 500 ppm [7]

CC(C)c1ccccc1N1C(=O)CS/C1=N\N=C\c1ccc2c(C(C)Oc3ccc(OC(F)(F)F)cc3)nn(C)c2c1 (stereo not drawn) [Example C-13, (2Z)-3-(2-isopropylphenyl)-2-[(E)-[1-methyl-3-[1-[4-(trifluoromethoxy)phenoxy]ethyl]indazol-6-yl]methylenehydrazono]thiazolidin-4-one]
≥ 75%: mortality at 800 ppm [1] | mortality at 500 ppm [2] | mortality at 300 ppm [3] | mortality at 300 ppm [5] | mortality at 800 ppm [6] | mortality at 500 ppm [7]

CC(C)c1ccccc1/N=C1\SCC(=O)N1/N=C/c1ccc2c(C(C)Oc3ccc(OC(F)(F)F)cc3)nn(C)c2c1 (stereo not drawn) [Example C-14, (2Z)-2-(2-isopropylphenyl)imino-3-[(E)-[1-methyl-3-[1-[4-(trifluoromethoxy)phenoxy]ethyl]indazol-6-yl]methyleneamino]thiazolidin-4-one]
≥ 75%: mortality at 800 ppm [1] | mortality at 500 ppm [2] | mortality at 300 ppm [3] | mortality at 300 ppm [5] | mortality at 800 ppm [6] | mortality at 500 ppm [7]
